Results taken from BigSolDB 2.1.

CC1(N=C(O)c2ccccc2)CCC2CC1C(c1ccccc1)=[NH+]C2(C)C.[O-][Cl+3]([O-])([O-])[O-] (stereo not given)
solubility (mole fraction)
Details | 298.15 K | 303.15 K | 308.15 K | 313.15 K | 318.15 K
in 2-ethoxyethanol | 0.00256 | 0.00297 | 0.00348 | 0.0041 | 0.0048
in acetone | 0.00275 | 0.00308 | 0.00363 | 0.00425 | 0.00495
in acetonitrile | 0.00307 | 0.0035 | 0.00421 | 0.00488 | 0.00572
in acrylonitrile | 0.00592 | 0.00661 | 0.00743 | 0.00856 | 0.0104
in ethanol | 0.0015 | 0.00182 | 0.00223 | 0.00264 | 0.00316
in isopropanol | 0.000845 | 0.00103 | 0.00132 | 0.00163 | 0.00199
in methanol | 0.00289 | 0.00327 | 0.0038 | 0.00445 | 0.00534
in n-butanol | 0.000928 | 0.00113 | 0.00146 | 0.00178 | 0.00221
in n-propanol | 0.0013 | 0.0016 | 0.00193 | 0.00232 | 0.00288
in propionitrile | 0.00186 | 0.00215 | 0.00254 | 0.00305 | 0.00346
in propylene glycol | 0.0122 | 0.0132 | 0.0147 | 0.0164 | 0.0187
in water | 3.8e-05 | 5.7e-05 | 7.7e-05 | 9.9e-05 | 0.000115

CC(=O)NC1(C)CCC2CC1C(C)=NC2(C)C (stereo not given)
solubility (mole fraction)
Details | 298.15 K | 303.15 K | 308.15 K | 313.15 K | 318.15 K
in 2-ethoxyethanol | 0.00185 | 0.00217 | 0.00248 | 0.00282 | 0.00322
in acetone | 0.00359 | 0.00388 | 0.00411 | 0.00445 | 0.00493
in acetonitrile | 0.0257 | 0.0265 | 0.0275 | 0.0292 | 0.0305
in acrylonitrile | 0.00442 | 0.00458 | 0.00487 | 0.00528 | 0.00581
in ethanol | 0.00153 | 0.00184 | 0.00211 | 0.00244 | 0.00284
in isopropanol | 0.00134 | 0.00155 | 0.00182 | 0.00214 | 0.00243
in methanol | 0.00945 | 0.0103 | 0.0111 | 0.0122 | 0.0142
in n-butanol | 0.00138 | 0.00164 | 0.00191 | 0.00219 | 0.00257
in n-propanol | 0.00144 | 0.00171 | 0.00196 | 0.00228 | 0.00264
in propionitrile | 0.00392 | 0.00416 | 0.0044 | 0.00477 | 0.00526
in propylene glycol | 0.0197 | 0.0206 | 0.022 | 0.0232 | 0.0251
in water | 0.0012 | 0.00142 | 0.0016 | 0.00182 | 0.0021
